Test results: patent US9266859B2, “Azetidinyloxyphenylpyrrolidine compounds” (Eli Lilly and Company, priority 2013, dated 2016)
Values joined by “and” are separate entries in the source; they are usually repeats but may differ in a detail not shown here. Equal entries are not always repeated.

Assays:
PDE4B = molecular target: T1, PDE4B (Homo sapiens, UniProt Q07343); test: PDE4 Inhibition In Vitro Assay; format: biochemical; settings: human recombinant PDE4B
T1 construct: made in house; host or cells: Saccharomyces cerevisiae lacking endogenous PDEs
Method: The phosphodiesterase assays are performed essentially according to the method described in Loughney, K., et al., J. Biol. Chem., 271, pp. 796-806 (1996). PDE4A, PDE4B, PDE4C, PDE4D, and PDE5 human recombinant proteins are expressed and purified from Saccharomyes cerevisiae that lack endogenous PDEs. The phosphodiesterase enzymes are diluted on ice with enzyme dilution buffer (25 mM Tris, pH 7.5, 0.1 mM DTT, 5.0 mM MgCl2, 100 mM NaCl, 5 μM ZnSO4, 100 μg/mL BSA) to give approximately 20%-40% hydrolysis of cyclic nucleotide monophosphate (cNMP) in the absence of inhibitor.
The stock solution of test compounds are diluted on the Beckman BioMek™ 1000 workstation to span a concentration range of 4.5 log units in 0.5 log increments. The DMSO concentration in the final test system is 2.5% for all PDE enzymes. The final test compound concentration tested ranged from 0.03 nM to 1 μM.
The assay is performed in a 96-well microtiter plate format on a Beckman BioMek™ 1000 robotic station. […] The amount of radioactivity released as phosphate is determined in a Wallac MicroBeta Plate™ counter.
The reduced data at each concentration of inhibitor is analyzed using a four-, three- or two-parameter logistic dose response model to provide an IC50 value.

[1] = test system: chronic cyclophosphamide (CYP)-induced overactive bladder mouse model; test: Overactive Bladder In Vivo Model (chronic cyclophosphamide-induced)
Method: The in vivo effect of PDE4 inhibitors on OAB is studied with a chronic cyclophosphamide (CYP)-induced overactive bladder mouse model adapted from Boudes et al., Neurourol. Urodynam. 2011. In a typical study, female C57/Bl6 mice, approximately 20 grams in body weight (Harlan Laboratories, Inc., Indianapolis, Ind.) are used. Mice are randomized by body weight into groups one day before the start of the study. Mice are individually housed and maintained on a 12 hour light/dark cycle at 22° C. with ad lib access to food (TD 2014 with 0.72% Ca and 0.61% P, 990 IU/g D3, Teklad™, Madison, Wis.) and water. Animals receive cyclophosphamide (dissolved in physiological saline) i.p. administration at 100 mg/kg on days 1, 3, 5, and 7 to chronically induce OAB. The vehicle control group received daily vehicle (HEC 1%/Tween 80 0.25%/Antifoam 0.05%) administered orally. All other groups are administered orally tadalafil at 10 mg/kg in combination with 0.1, 1.0, or 10.0 mg/kg of test compound daily at a volume of 200 μl/mouse. On day 8, mice are housed in urine collection chambers with a filter paper placed underneath chamber. Prior to urine collection, gavages of 1 ml water are given to each mouse. Urine is collected from 6 pm to 10 pm (i.e. for 4 hrs). Gel cups (DietGel™76A) are supplied as water source during the 4 hour period. The filter paper is changed every hour. Voiding frequency and volume/void are calculated using Image J software (NIH). Data are statistically analyzed with JMP8® software (Cary, N.C.).
All treatment groups receive a fixed dose of 10 mg/kg of tadalafil.

[2] = Example 2 0.1, 1.0, 10.0 mg/kg given with tadalafil 10 mg/kg

T1 sequence (Q07343 whole entry): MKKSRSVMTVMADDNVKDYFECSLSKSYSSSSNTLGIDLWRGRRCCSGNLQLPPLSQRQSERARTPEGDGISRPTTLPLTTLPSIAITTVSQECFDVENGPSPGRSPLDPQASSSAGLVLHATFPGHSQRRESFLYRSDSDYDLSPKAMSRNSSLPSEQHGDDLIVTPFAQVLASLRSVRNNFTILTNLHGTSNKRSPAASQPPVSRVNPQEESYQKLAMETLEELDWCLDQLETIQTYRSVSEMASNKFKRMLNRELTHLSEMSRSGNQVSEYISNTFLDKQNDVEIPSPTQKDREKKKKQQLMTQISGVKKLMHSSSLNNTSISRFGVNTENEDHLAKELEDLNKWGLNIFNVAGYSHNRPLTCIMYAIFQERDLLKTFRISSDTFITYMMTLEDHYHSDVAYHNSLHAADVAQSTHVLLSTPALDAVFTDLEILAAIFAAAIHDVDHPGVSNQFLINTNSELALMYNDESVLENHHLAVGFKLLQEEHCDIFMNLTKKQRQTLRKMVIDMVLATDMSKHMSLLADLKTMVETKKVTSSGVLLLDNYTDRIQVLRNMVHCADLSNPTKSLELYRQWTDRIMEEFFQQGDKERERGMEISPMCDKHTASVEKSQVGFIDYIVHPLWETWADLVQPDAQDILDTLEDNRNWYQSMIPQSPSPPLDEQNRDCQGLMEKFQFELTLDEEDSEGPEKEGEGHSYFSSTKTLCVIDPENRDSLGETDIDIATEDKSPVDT

COc1ccc([C@@H]2CN(C(=O)[C@@H](O)CO)C[C@@]2(C)[C@@H](C)O)cc1OC1CN(c2ccc(C)cn2)C1 [Example 2, (2S)-3-[(3S,4S)-3-[(1R)-1-hydroxyethyl]-4-(4-methoxy-3-{[1-(5-methylpyridin-2-yl)azetidin-3-yl]oxy}phenyl)-3-methylpyrrolidin-1-yl]-3-oxopropane-1,2-diol]
IC50 (PDE4B): < 10 nM and 0.58 nM
Mean Voiding Frequency ([1]; Example 2 0.1 mg/kg + tadalafil 10 mg/kg, oral daily, day 8, CYP-treated female C57/Bl6 mice, vehicle 16.5): 10 no./4 hr
effect on urinary frequency (in words) [1, 2]: significantly reduces urinary frequency in a dose-dependent fashion
effect on volume/void (in words) [1, 2]: increases of volume/void are also observed in a dose-dependent fashion

COc1ccc([C@@H]2CN(C(=O)[C@@H](O)CO)C[C@@]2(C)[C@@H](C)O)cc1OC1CN(c2ccccn2)C1 [Example 1, (2S)-3-[(3S,4S)-3-[(1R)-1-hydroxyethyl]-4-{4-methoxy-3-[(1-pyridin-2-ylazetidin-3-yl)oxy]phenyl}-3-methylpyrrolidin-1-yl]-3-oxopropane-1,2-diol]
IC50 (PDE4B): < 10 nM
